Test results as given in PubChem BioAssay AID1745844 (Carcinogenic Potency Database (CPDB), 2022).
Calls of active or inactive are those of the source. No rule for the calls is given here.

System: rodent lifetime carcinogenesis bioassay, tumor incidence TD50
Assay: carcinogenic potency in animals, long-term in vivo studies, CPDB compilation (AID 1745844)

CC(=O)CNCC(O)C(O)N=O (configuration not stated)
TD50 (hamster, strain Syrian Golden, females, by gavage, site: forestomach, lesion: several types, types named in the paper, dosed 35 weeks, study length 55 weeks): 0.754 mg/kg/day | TD50 (hamster, strain Syrian Golden, females, by gavage, site: forestomach, lesion: squamous-cell papilloma, dosed 35 weeks, study length 55 weeks): 0.868 mg/kg/day | TD50 (hamster, strain Syrian Golden, females, by gavage, site: liver, lesion: hepatocellular adenoma, dosed 35 weeks, study length 55 weeks): 9.92 mg/kg/day | TD50 (hamster, strain Syrian Golden, females, by gavage, site: liver, lesion: hepatocellular carcinoma, dosed 35 weeks, study length 55 weeks): 20.4 mg/kg/day | TD50 (hamster, strain Syrian Golden, females, by gavage, site: liver, lesion: several types, types named in the paper, dosed 35 weeks, study length 55 weeks): 9.92 mg/kg/day | TD50 (hamster, strain Syrian Golden, females, by gavage, site: lung, lesion: carcinoma, dosed 35 weeks, study length 55 weeks): 20.4 mg/kg/day | TD50 (hamster, strain Syrian Golden, females, by gavage, site: pancreatic duct, lesion: several types, types named in the paper, dosed 35 weeks, study length 55 weeks): 3.63 mg/kg/day | TD50 (rat, strain Fischer 344, females, in drinking water, site: esophagus, lesion: carcinoma, dosed 31 weeks, study length 55 weeks): 0.0637 mg/kg/day | TD50 (rat, strain Fischer 344, females, in drinking water, site: esophagus, lesion: several types, types named in the paper, dosed 31 weeks, study length 55 weeks): 0.0352 mg/kg/day | TD50 (rat, strain Fischer 344, females, in drinking water, site: forestomach, lesion: carcinoma, dosed 31 weeks, study length 55 weeks): 0.155 mg/kg/day | TD50 (rat, strain Fischer 344, females, in drinking water, site: forestomach, lesion: several types, types named in the paper, dosed 31 weeks, study length 55 weeks): 0.0482 mg/kg/day | TD50 (rat, strain Fischer 344, females, in drinking water, site: liver, lesion: hepatocellular carcinoma, dosed 31 weeks, study length 55 weeks): 1.3 mg/kg/day (inactive) | TD50 (rat, strain Fischer 344, females, in drinking water, site: tongue, lesion: carcinoma, dosed 31 weeks, study length 55 weeks): 0.0964 mg/kg/day | TD50 (rat, strain Fischer 344, females, in drinking water, site: tongue, lesion: several types, types named in the paper, dosed 31 weeks, study length 55 weeks): 0.0555 mg/kg/day

Cc1cc(C)c(S(=O)(=O)O)cc1N=Nc1cc(S(=O)(=O)O)c2ccccc2c1O
TD50 (dog, strain Beagle, females, in feed, site: adrenal gland, lesion: medullary adenoma, dosed 365 weeks, study length 365 weeks): 316 mg/kg/day | TD50 (dog, strain Beagle, females, in feed, site: any site (literature study), lesion: several types, types named in the paper, dosed 365 weeks, study length 365 weeks): 670 mg/kg/day | TD50 (dog, strain Beagle, females, in feed, site: mammary gland, lesion: adenocarcinoma, dosed 365 weeks, study length 365 weeks): 316 mg/kg/day (inactive) | carcinogen call (mouse, strain C3HeB/Jax, both sexes, in feed, site: any site (literature study), lesion: several types, types named in the paper, dosed 104 weeks, study length 104 weeks): negative (inactive) | carcinogen call (mouse, strain C3HeB/Jax, both sexes, in feed, site: liver, lesion: hepatoma, dosed 104 weeks, study length 104 weeks): negative (inactive) | TD50 (mouse, strain C57BL/He, both sexes, in feed, site: any site (literature study), lesion: several types, types named in the paper, dosed 104 weeks, study length 104 weeks): 20300 mg/kg/day (inactive) | TD50 (mouse, strain C57BL/He, both sexes, in feed, site: liver, lesion: hepatoma, dosed 104 weeks, study length 104 weeks): 57100 mg/kg/day (inactive) | TD50 (rat, strain Non-inbred, both sexes, in feed, site: any site (literature study), lesion: several types, types named in the paper, dosed 143 weeks, study length 143 weeks): 12000 mg/kg/day | TD50 (rat, strain Non-inbred, both sexes, in feed, site: liver, lesion: hepatoma, dosed 143 weeks, study length 143 weeks): 49500 mg/kg/day | TD50 (rat, strain Osborne-Mendel, both sexes, in feed, site: all sites, lesion: fibrosarcoma, dosed 104 weeks, study length 104 weeks): 20300 mg/kg/day (inactive) | carcinogen call (rat, strain Osborne-Mendel, both sexes, in feed, site: any site (literature study), lesion: several types, types named in the paper, dosed 104 weeks, study length 104 weeks): negative (inactive) | TD50 (rat, strain Osborne-Mendel, both sexes, in feed, site: liver, lesion: adenoma, dosed 104 weeks, study length 104 weeks): 59800 mg/kg/day (inactive) | carcinogen call (rat, strain Sprague-Dawley, both sexes, in feed, site: any site (literature study), lesion: several types, types named in the paper, dosed 104 weeks, study length 104 weeks): negative (inactive) | TD50 (rat, strain Wistar, both sexes, in feed, site: abdomen, lesion: malignant lymphoma, dosed 91 weeks, study length 91 weeks): 6130 mg/kg/day

C[N+](C)(C)CCO
TD50 (mouse, strain C3H/HeN, males, in feed, site: liver, lesion: hepatocellular adenoma, dosed 52 weeks, study length 52 weeks): 5650 mg/kg/day | TD50 (mouse, strain C3H/HeN, males, in feed, site: liver, lesion: hepatocellular carcinoma, dosed 52 weeks, study length 52 weeks): 6060 mg/kg/day | TD50 (mouse, strain C3H/HeN, males, in feed, site: liver, lesion: several types, types named in the paper, dosed 52 weeks, study length 52 weeks): 2770 mg/kg/day | carcinogen call (rat, strain Fischer 344, males, in feed, site: liver, lesion: neoplastic nodule, dosed 72 weeks, study length 103 weeks): negative (inactive)
